In patent US20100016355A1, “ALPHA-2B ADRENERGIC RECEPTOR AGONIST AND SEROTONIN-NOREPINEPHRINE REUPTAKE INHIBITOR COMPOSITIONS FOR TREATING CHRONIC PAIN” (priority 2006, published 2010):

System: Chung rat model of chronic pain (allodynia)
Experiment: Chung rat model of chronic pain
Assay type: in vivo
Conditions: rats
Description: Amitriptyline was administered intraperitoneally to rats at a minimally effective dose; that is, the compound was administered at a dose that, when administered alone, is the minimum dose required to relieve pain (this dose was calculated by finding, first, the dose that produced drug's maximum effect—that is, the dose that fully alleviated pain—and dividing that dose by […]; the result is a dose that is slightly less than 50% of the dose that is required to produce the drug's maximum effect) The rats then immediately received one of two alpha-2B receptor agonists, compound No. 95 and compound no. No. 27, or received no additional compound, at all. Compound No. 95 and Compound No. 27 were administered intraperitoneally at ineffective doses; that is, these compounds were administered at doses that, when administered alone, are not effective in relieving pain. Pain reversal was then assessed using the Chung rat model of chronic pain. The model is described by Kim and Chung, Pain, […], at 355-363 (1992) and in U.S. Pat. No. 7,091,232, both of which are incorporated by reference herein.

C[C@@H](c1c[nH]c(=S)[nH]1)c1cccc2ncccc12 [Compound No. 95]
Pain Reversal (Compound No. 95 1 μg/kg i.p. (ineffective dose alone) given immediately after amitriptyline 30 μg/kg i.p.): 80%

C1=NC(CC2CCc3ccccc3C2)CN1 (stereo not shown) [Compound No. 27]
Pain Reversal (Compound No. 27 10 μg/kg i.p. (ineffective dose alone) given immediately after amitriptyline 30 μg/kg i.p.): 81%

CN(C)CCC=C1c2ccccc2CCc2ccccc21 [Amitriptyline, reference compound]
Pain Reversal (amitriptyline alone, 30 μg/kg intraperitoneally (minimally effective dose)): 43% | Pain Reversal (amitriptyline alone, 30 μg/kg intraperitoneally (minimally effective dose), listed as amitriptyline): 43%
